{"source": "ChEMBL document CHEMBL4402605", "about": "“A Chemical Switch for Transforming a Purine Agonist for Toll-like Receptor 7 to a Clinically Relevant Antagonist” (J Med Chem, 2020)", "key": {"[1]": {"tested_on": "Mus musculus", "test": "(§1) Protection against imiquimod-induced C57BL/6 mouse model of psoriasis assessed as suppression of vascular dilatation at 15 mg/kg, po administered via gavage treated 1 day prior to imiquimod application and subsequent daily dosing for 7 consecutive days and measured post-last dose by H and E staining based histopathological analysis", "assay_type": "functional"}, "[2]": {"tested_on": "Mus musculus", "test": "as §1, with “hyperkeratosis” for “vascular dilatation”", "assay_type": "functional"}, "[3]": {"test": "Apparent permeability across apical to basal side in human Caco2 cells at 10 uM measured after 120 mins by LC-MS/MS analysis", "settings": "Caco-2"}, "[4]": {"tested_on": "Mus musculus", "test": "as §1, with “reduction in MX2 mRNA expression” for “suppression of vascular dilatation”, “SYBR green dye” for “H and E staining”, “qPCR” for “histopathological”", "assay_type": "functional, organism-based"}, "[5]": {"test": "AUC (0 to 24 hrs) in C57BL/6 mouse at 15 mg/kg, po administered via gavage by LC-MS/MS analysis", "assay_type": "ADME, organism-based", "set-up": "time < 24 hr, dose 15 mg/kg, route oral", "settings": "in vivo"}, "[6]": {"test": "AUC (0 to 24 hrs) in C57BL/6 mouse at 15 mg/kg, iv by LC-MS/MS analysis", "assay_type": "ADME, organism-based", "set-up": "time < 24 hr, dose 15 mg/kg, route intravenous", "settings": "in vivo"}, "[7]": {"tested_on": "Mus musculus", "test": "(§2) Protection against imiquimod-induced C57BL/6 mouse model of psoriasis assessed as decrease in skin thickening at 15 mg/kg, po administered via gavage treated 1 day prior to imiquimod application and subsequent daily dosing for 7 consecutive days and measured post-last dose", "assay_type": "functional, organism-based"}, "[8]": {"molecular_target": "T1, Toll-like receptor 8 (Homo sapiens) (UniProt Q9NR97)", "T1 sequence (whole entry)": "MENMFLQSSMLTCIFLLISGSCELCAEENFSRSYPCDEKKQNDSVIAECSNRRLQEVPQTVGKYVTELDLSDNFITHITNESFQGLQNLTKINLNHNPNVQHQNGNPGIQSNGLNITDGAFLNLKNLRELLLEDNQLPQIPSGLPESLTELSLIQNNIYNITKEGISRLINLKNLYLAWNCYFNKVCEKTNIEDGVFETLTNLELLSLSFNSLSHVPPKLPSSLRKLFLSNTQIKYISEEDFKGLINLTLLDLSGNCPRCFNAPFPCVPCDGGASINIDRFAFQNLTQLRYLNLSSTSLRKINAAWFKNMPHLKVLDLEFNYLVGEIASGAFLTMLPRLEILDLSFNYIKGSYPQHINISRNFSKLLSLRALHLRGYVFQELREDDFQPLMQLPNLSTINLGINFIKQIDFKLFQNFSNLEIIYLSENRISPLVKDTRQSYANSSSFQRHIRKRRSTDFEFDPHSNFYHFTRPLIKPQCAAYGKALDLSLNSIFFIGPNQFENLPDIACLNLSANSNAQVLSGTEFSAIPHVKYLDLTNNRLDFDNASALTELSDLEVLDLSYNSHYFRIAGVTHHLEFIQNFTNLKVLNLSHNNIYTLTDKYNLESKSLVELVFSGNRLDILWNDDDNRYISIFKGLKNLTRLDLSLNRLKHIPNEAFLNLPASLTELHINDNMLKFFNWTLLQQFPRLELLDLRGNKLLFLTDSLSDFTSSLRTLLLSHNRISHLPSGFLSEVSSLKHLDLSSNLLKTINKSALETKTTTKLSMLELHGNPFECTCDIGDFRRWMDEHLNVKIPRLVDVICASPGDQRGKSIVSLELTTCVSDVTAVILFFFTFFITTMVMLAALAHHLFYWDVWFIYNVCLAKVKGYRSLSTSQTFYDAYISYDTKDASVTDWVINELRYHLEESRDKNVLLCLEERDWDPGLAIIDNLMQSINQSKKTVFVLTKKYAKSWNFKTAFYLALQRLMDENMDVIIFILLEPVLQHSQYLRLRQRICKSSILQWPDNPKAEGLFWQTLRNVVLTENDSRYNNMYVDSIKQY", "test": "Antagonist activity at human TLR8 expressed in HEK-Blue cells assessed as inhibition of CL075-induced NFkappaB activation by measuring reduction in SEAP level up to 50 uM after overnight incubation using qunati-blue reagent by SEAP reporter gene-based spectrophotometric method", "assay_type": "cell-based"}, "[9]": {"test": "Toxicity in C57BL/6 mouse assessed as capsular space obliteration at 15 mg/kg, po administered once daily via gavage for 7 consecutive days and measured post-last dose by H and E staining based histomorphological analysis", "assay_type": "organism-based", "settings": "in vivo"}, "[10]": {"test": "Toxicity in C57BL/6 mouse assessed as behavioral changes at 15 mg/kg, po administered once daily via gavage for 7 consecutive days and measured post-last dose by H and E staining based histomorphological analysis", "assay_type": "organism-based", "settings": "in vivo"}, "[11]": {"test": "Toxicity in C57BL/6 mouse assessed as mesangial proliferation at 15 mg/kg, po administered once daily via gavage for 7 consecutive days and measured post-last dose by H and E staining based histomorphological analysis", "assay_type": "organism-based", "settings": "in vivo"}, "[12]": {"test": "Toxicity in C57BL/6 mouse assessed as change in liver parenchymal architecture at 15 mg/kg, po administered once daily via gavage for 7 consecutive days and measured post-last dose by H and E staining based histomorphological analysis", "assay_type": "organism-based", "settings": "in vivo"}, "[13]": {"tested_on": "Mus musculus", "test": "as §2, with “reduction” for “decrease”, “ISG15 mRNA expression” for “skin thickening”, “dose by SYBR green dye based qPCR analysis” for “dose”", "assay_type": "functional, organism-based"}, "[14]": {"tested_on": "HEK293", "test": "Cytotoxicity against HEK293 cells assessed as reduction in cell viability up to 100 uM measured after overnight incubation by propidium iodide staining based flow cytometry", "settings": "human"}, "[15]": {"test": "Toxicity in C57BL/6 mouse assessed as liver fatty infiltration at 15 mg/kg, po administered once daily via gavage for 7 consecutive days and measured post-last dose by H and E staining based histomorphological analysis", "assay_type": "organism-based", "settings": "in vivo"}, "[16]": {"tested_on": "Mus musculus", "test": "as §1, with “spongiosis” for “vascular dilatation”", "assay_type": "functional"}, "[17]": {"test": "Toxicity in C57BL/6 mouse assessed as lung immune infiltration at 15 mg/kg, po administered once daily via gavage for 7 consecutive days and measured post-last dose by H and E staining based histomorphological analysis", "assay_type": "organism-based", "settings": "in vivo"}, "[18]": {"test": "Toxicity in C57BL/6 mouse assessed as change in lung alveolar architecture at 15 mg/kg, po administered once daily via gavage for 7 consecutive days and measured post-last dose by H and E staining based histomorphological analysis", "assay_type": "organism-based", "settings": "in vivo"}, "[19]": {"test": "Efflux ratio of apparent permeability across basal to apical side over apical to basal side in human Caco2 cells at 10 uM measured after 120 mins by LC-MS/MS analysis", "settings": "Caco-2"}, "[20]": {"tested_on": "Mus musculus", "test": "as §1, with “parakeratosis” for “vascular dilatation”", "assay_type": "functional"}, "[21]": {"test": "Volume of distribution at steady state in C57BL/6 mouse at 15 mg/kg, iv by LC-MS/MS analysis", "assay_type": "ADME, organism-based", "settings": "in vivo"}, "[22]": {"test": "Toxicity in C57BL/6 mouse assessed as physiological abnormalities at 15 mg/kg, po administered once daily via gavage for 7 consecutive days and measured post-last dose by H and E staining based histomorphological analysis", "assay_type": "organism-based", "settings": "in vivo"}, "[23]": {"test": "Apparent permeability across basal to apical side in human Caco2 cells at 10 uM measured after 120 mins by LC-MS/MS analysis", "settings": "Caco-2"}}, "note": "Calls of active or inactive are those of the source. The calls are words filed in the database; no cut-off is given here."}
{"molecule": "CCN1CCN(CCCn2cnc3c(N4CCN(CC)CC4)ncnc32)CC1", "values": [{"measurement": "Activity", "setting": "[1]", "value": 100, "unit": "%"}, {"measurement": "Activity", "setting": "[2]", "value": 100, "unit": "%"}, {"measurement": "Papp A→B at 2 h, 10 µM", "setting": "[3]", "value": 3.57, "unit": "×10⁻⁶ cm/s"}, {"measurement": "Activity", "setting": "[4]", "value": "Active"}, {"measurement": "AUC(0-t) at 24 h", "setting": "[5]", "value": 36100, "unit": "ng·h/mL"}, {"measurement": "AUC(0-t) at 24 h", "setting": "[6]", "value": 50900, "unit": "ng·h/mL"}, {"measurement": "Activity", "setting": "[7]", "value": "Active"}, {"measurement": "inhibition", "setting": "[8]", "value": "inactive"}, {"measurement": "Activity", "setting": "[9]", "value": "Non-Toxic"}, {"measurement": "Activity", "setting": "[10]", "value": "Non-Toxic"}, {"measurement": "Activity", "setting": "[11]", "value": "Non-Toxic"}, {"measurement": "Activity", "setting": "[12]", "value": "Non-Toxic"}, {"measurement": "Activity", "setting": "[13]", "value": "Active"}, {"measurement": "Activity", "setting": "[14]", "value": "Non-Toxic"}, {"measurement": "Activity", "setting": "[15]", "value": "Non-Toxic"}, {"measurement": "Activity", "setting": "[16]", "value": 100, "unit": "%"}, {"measurement": "Activity", "setting": "[17]", "value": "Non-Toxic"}, {"measurement": "Activity", "setting": "[18]", "value": "Non-Toxic"}, {"measurement": "efflux ratio at 2 h, 10 µM", "setting": "[19]", "value": 2.6}, {"measurement": "Activity", "setting": "[20]", "value": 100, "unit": "%"}, {"measurement": "Vdss", "setting": "[21]", "value": 4.2, "unit": "L/kg"}, {"measurement": "Activity", "setting": "[22]", "value": "Non-Toxic"}, {"measurement": "Papp B→A at 2 h, 10 µM", "setting": "[23]", "value": 9.28, "unit": "×10⁻⁶ cm/s"}]}
